Measured values reported in ChEMBL document CHEMBL1201862, “PubChem BioAssay data set” (2004).
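96-well plates; 48 h exposure; 5 concentrations. Endpoints by linear interpolation between flanking doses. Not reached: highest tested concentration assigned. Here, GI50 denotes the concentration required for 50% inhibition of growth.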 Active and inactive are the calls of the source. Rule as the data show it: active = GI50 up to about 1.1 µM and inactive = higher.

Legend:
Test in all cases: NCI-60 cell line screen, 48 h
ACHN = test system: ACHN
BT-549 = test system: BT-549
CAKI-1 = test system: CAKI-1
COLO 205 = test system: COLO 205
DU-145 = test system: DU-145
EKVX = test system: EKVX
HCT-116 = test system: HCT-116
Hs-578T = test system: Hs-578T
IGROV-1 = test system: IGROV-1
M14 = test system: M14
NCI-H226 = test system: NCI-H226
NCI/ADR-RES = test system: NCI/ADR-RES
SK-OV-3 = test system: SK-OV-3
SN12C = test system: SN12C
SNB-75 = test system: SNB-75
SR = test system: SR
SW-620 = test system: SW-620
T47D = test system: T47D
U-251 = test system: U-251

Row | Compound | GI50 (ACHN) | GI50 (BT-549) | GI50 (CAKI-1) | GI50 (COLO 205) | GI50 (DU-145) | GI50 (EKVX) | GI50 (HCT-116) | GI50 (Hs-578T) | GI50 (IGROV-1) | GI50 (M14) | GI50 (NCI-H226) | GI50 (NCI/ADR-RES) | GI50 (SK-OV-3) | GI50 (SN12C) | GI50 (SNB-75) | GI50 (SR) | GI50 (SW-620) | GI50 (T47D) | GI50 (U-251)
1 | COc1ccc(SCc2cc(OC)c(OC)c(OC)c2)cc1OC | 51.8 µM (inactive) | 30 µM (inactive) | 44.5 µM (inactive) | 50.4 µM (inactive) | > 100 µM (inactive) | 43.4 µM (inactive) | 61.7 µM (inactive) | 54 µM (inactive) | 80.4 µM (inactive) | 64.1 µM (inactive) | 51.6 µM (inactive) | 32.4 µM (inactive) | 50.1 µM (inactive) | > 100 µM (inactive) | 17.7 µM (inactive) | 53.8 µM (inactive) | 82.6 µM (inactive) | 13.4 µM (inactive) | 53.8 µM (inactive)
2 | COC1=CC(=O)C[C@@H](C)[C@]12Oc1c(Cl)c(OC)cc(OC)c1C2=O [GRISEOFULVIN] | 67.3 µM (inactive) | > 39.5 µM (inactive) | 9.53 µM (inactive) | 9.89 µM (inactive) | 39.7 µM (inactive) | > 100 µM (inactive) | 11.8 µM (inactive) | 11.9 µM (inactive) | 17.4 µM (inactive) | 9.48 µM (inactive) | 52.8 µM (inactive) | 12.3 µM (inactive) | 35.4 µM (inactive) | 40.5 µM (inactive) | 4.5 µM (inactive) | 7.48 µM (inactive) | 7.62 µM (inactive) | 38.2 µM (inactive) | 27.7 µM (inactive)
3 | Cc1[nH]c2ncn(Nc3ccccc3)c(=N)c2c1Cc1ccccc1 | 4.22 µM (inactive) | 3.34 µM (inactive) | 24.4 µM (inactive) | 0.0998 µM (active) | 35.4 µM (inactive) | 5.89 µM (inactive) | 0.522 µM (active) | 8.28 µM (inactive) | 3.85 µM (inactive) | 0.162 µM (active) | > 55 µM (inactive) | 29.6 µM (inactive) | > 100 µM (inactive) | > 80.5 µM (inactive) | 71.3 µM (inactive) | 21.2 µM (inactive) | 34.1 µM (inactive) | 1.07 µM (active) | 19.7 µM (inactive)
4 | Cn1ncc2c(Cl)ncnc21 | > 100 µM (inactive) | > 100 µM (inactive) | > 100 µM (inactive) | > 100 µM (inactive) | > 100 µM (inactive) | > 100 µM (inactive) | > 100 µM (inactive) | > 100 µM (inactive) | > 100 µM (inactive) | > 100 µM (inactive) | > 100 µM (inactive) | > 100 µM (inactive) | > 100 µM (inactive) | > 100 µM (inactive) | > 100 µM (inactive) | > 100 µM (inactive) | > 100 µM (inactive) | > 100 µM (inactive) | > 100 µM (inactive)
5 | CN1CN(c2ccccc2)C2(CCN(CCCSc3ccccc3NC(=O)/C=C/c3ccccc3)CC2)C1=O | 2.4 µM (inactive) | 2.54 µM (inactive) | 9.91 µM (inactive) | 2.01 µM (inactive) | 3.82 µM (inactive) | 4.98 µM (inactive) | 2.5 µM (inactive) | 3.41 µM (inactive) | 2.86 µM (inactive) | 1.71 µM (inactive) | 2.24 µM (inactive) | 3.87 µM (inactive) | 5.92 µM (inactive) | 3.39 µM (inactive) | 5.52 µM (inactive) | 2.1 µM (inactive) | 6.25 µM (inactive) | 4.01 µM (inactive) | 7.5 µM (inactive)
6 | COC(=O)[C@@H]1C=C[C@H](OC2OC(COC(C)=O)C(OC(C)=O)C(OC(C)=O)C2OC(C)=O)n2c(=O)n(-c3ccccc3)c(=O)n21 (stereo partly specified) | 1.72 µM (inactive) | 2.29 µM (inactive) | 1.2 µM (inactive) | 1.85 µM (inactive) | 4.75 µM (inactive) | 5.9 µM (inactive) | 1.86 µM (inactive) | 17.3 µM (inactive) | 3.87 µM (inactive) | 2.36 µM (inactive) | 12.2 µM (inactive) | 6.92 µM (inactive) | 15.9 µM (inactive) | 2.69 µM (inactive) | 4.06 µM (inactive) | 1.82 µM (inactive) | 1.79 µM (inactive) | 2.57 µM (inactive) | 2.8 µM (inactive)
7 | CCON=C1C(C)(C)C(C)(C)C(C)(C)C1(C)C | > 100 µM (inactive) | > 100 µM (inactive) | > 100 µM (inactive) | > 100 µM (inactive) | > 100 µM (inactive) | > 100 µM (inactive) | > 100 µM (inactive) | > 100 µM (inactive) | > 100 µM (inactive) | > 100 µM (inactive) | > 100 µM (inactive) | > 100 µM (inactive) | > 100 µM (inactive) | > 100 µM (inactive) | > 100 µM (inactive) | > 100 µM (inactive) | > 100 µM (inactive) | > 100 µM (inactive) | > 100 µM (inactive)
8 | N/C(=N\N/C=C1\C=Nc2cc(C(F)(F)F)ccc2C1=O)NO | > 10 µM (inactive) | > 10 µM (inactive) | > 10 µM (inactive) | > 10 µM (inactive) | > 10 µM (inactive) | > 10 µM (inactive) | > 10 µM (inactive) | > 10 µM (inactive) | > 10 µM (inactive) | > 10 µM (inactive) | > 10 µM (inactive) | > 10 µM (inactive) | > 10 µM (inactive) | > 10 µM (inactive) | 0.148 µM (active) | > 10 µM (inactive) | > 10 µM (inactive) | > 10 µM (inactive) | > 10 µM (inactive)
9 | O=C1c2cc([N+](=O)[O-])sc2C(=O)c2c([N+](=O)[O-])csc21 | 0.324 µM (active) | 0.802 µM (active) | 1.11 µM (active) | 0.925 µM (active) | 1.7 µM (inactive) | 1.48 µM (inactive) | 0.456 µM (active) | 0.65 µM (active) | 0.4 µM (active) | 0.367 µM (active) | 1.52 µM (inactive) | 1.48 µM (inactive) | 1.68 µM (inactive) | 0.542 µM (active) | 1.77 µM (inactive) | 0.0479 µM (active) | 0.31 µM (active) | 0.69 µM (active) | 0.379 µM (active)
10 | FC(F)(F)c1cc(N(C2c3ccccc3C=Cc3ccccc32)P(Cl)Cl)cc(C(F)(F)F)c1 | 17.5 µM (inactive) | 0.706 µM (active) | 21.9 µM (inactive) | 22.2 µM (inactive) | 19.3 µM (inactive) | 17.1 µM (inactive) | 16.5 µM (inactive) | 25.5 µM (inactive) | 26.2 µM (inactive) | 22.8 µM (inactive) | 19.1 µM (inactive) | 3.62 µM (inactive) | 25.4 µM (inactive) | 16.9 µM (inactive) | 19.3 µM (inactive) | 16 µM (inactive) | 25.4 µM (inactive) | 17.9 µM (inactive) | 17.8 µM (inactive)
11 | COC(=O)C1=C(O)C(C(=O)OC)[C@]2(O)[C@H](C(=O)OC)[C@H]1C[C@@H](c1ccc(OC)c(OC)c1)[C@H]2C(=O)OC (stereo partly specified) | 25.8 µM (inactive) | 16.4 µM (inactive) | 25.8 µM (inactive) | 17.9 µM (inactive) | 19.9 µM (inactive) | 32.5 µM (inactive) | 21 µM (inactive) | 29.9 µM (inactive) | 26.1 µM (inactive) | 12.3 µM (inactive) | 4.79 µM (inactive) | 15.5 µM (inactive) | 17.6 µM (inactive) | 28.2 µM (inactive) | 7.8 µM (inactive) | 14 µM (inactive) | 15.6 µM (inactive) | 15.9 µM (inactive) | 11.2 µM (inactive)
12 | Cc1c(CCN2CCOCC2)c(N2CCOCC2)n2c(nc3ccccc32)c1C#N | > 10 µM (inactive) | > 10 µM (inactive) | > 10 µM (inactive) | > 10 µM (inactive) | > 10 µM (inactive) | > 10 µM (inactive) | > 10 µM (inactive) | 3.77 µM (inactive) | > 10 µM (inactive) | > 10 µM (inactive) | > 10 µM (inactive) | > 10 µM (inactive) | > 10 µM (inactive) | > 10 µM (inactive) | > 10 µM (inactive) | > 10 µM (inactive) | > 10 µM (inactive) | > 10 µM (inactive) | > 10 µM (inactive)
13 | Cc1nc(SCC(=O)Nc2ccc(Cl)cc2)c2sc(=S)n(-c3ccccc3)c2n1 | > 10 µM (inactive) | > 10 µM (inactive) | > 10 µM (inactive) | > 10 µM (inactive) | > 10 µM (inactive) | > 10 µM (inactive) | > 10 µM (inactive) | > 10 µM (inactive) | > 10 µM (inactive) | > 10 µM (inactive) | > 10 µM (inactive) | > 10 µM (inactive) | > 10 µM (inactive) | > 10 µM (inactive) | > 10 µM (inactive) | 6.28 µM (inactive) | > 10 µM (inactive) | > 10 µM (inactive) | > 10 µM (inactive)
14 | O=C1CCc2c(sc3ncnc(Nc4cccc(Br)c4)c23)C1 | 1.69 µM (inactive) | 3.77 µM (inactive) | 2.09 µM (inactive) | 7.36 µM (inactive) | 3.42 µM (inactive) | 2.19 µM (inactive) | 3.56 µM (inactive) | 4.15 µM (inactive) | 1.68 µM (inactive) | 3.42 µM (inactive) | 4.06 µM (inactive) | 2.94 µM (inactive) | 7.52 µM (inactive) | 3.4 µM (inactive) | 3.7 µM (inactive) | 2.33 µM (inactive) | 3.62 µM (inactive) | 2.4 µM (inactive) | 2.81 µM (inactive)
